What was measured:
Aromatase [1] = molecular target: T1, Aromatase (Homo sapiens, UniProt P11511)
T1 sequence (P11511 whole entry): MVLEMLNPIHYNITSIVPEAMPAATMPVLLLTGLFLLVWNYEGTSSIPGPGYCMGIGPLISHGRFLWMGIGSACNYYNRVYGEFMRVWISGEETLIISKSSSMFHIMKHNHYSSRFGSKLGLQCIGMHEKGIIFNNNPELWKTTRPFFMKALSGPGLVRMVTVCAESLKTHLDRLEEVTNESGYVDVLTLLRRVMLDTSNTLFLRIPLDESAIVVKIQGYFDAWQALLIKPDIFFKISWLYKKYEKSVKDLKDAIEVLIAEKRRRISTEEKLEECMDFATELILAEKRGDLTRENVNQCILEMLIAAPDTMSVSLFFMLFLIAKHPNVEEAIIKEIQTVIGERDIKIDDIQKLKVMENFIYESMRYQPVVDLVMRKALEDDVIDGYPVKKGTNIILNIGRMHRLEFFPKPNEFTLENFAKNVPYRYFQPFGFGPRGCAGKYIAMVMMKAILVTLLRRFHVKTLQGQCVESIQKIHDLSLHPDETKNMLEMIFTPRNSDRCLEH

Aromatase [2] = molecular target: T1, Aromatase; assay: Inhibition of human recombinant aromatase expressed in baculovirus/insect cells using 7-methoxy-trifluoromethylcoumarin as substrate after 30 mins by fluorescence-based spectrophotometry

IC50 (Aromatase [2]; read-out: IC50) [µM]	SMILES	other results
	O=C1c2ccccc2OC(O)C1c1ccccc1 (centres undefined)	IC50 (Aromatase [1]): 170 µM
	O=C1c2ccccc2OCC1c1ccc(O)cc1 (centres undefined)	IC50 (Aromatase [1]): 160 µM
	O=C1c2ccccc2OCC1c1ccc(O)c(O)c1 (centres undefined)	IC50 (Aromatase [1]): ≥ 200 µM
41	COc1ccc2c(c1)OCC(c1ccccc1)C2=O (racemic)	
44	Cc1ccc2c(c1)C(=O)C(c1ccccc1)CO2 (racemic)	
18	Cc1ccc2c(c1)OCC(c1ccccc1)C2=O (racemic)	
20	Cc1cccc(C2COc3ccccc3C2=O)c1 (racemic)	
41	Cc1ccc(C2COc3ccccc3C2=O)cc1 (racemic)	
20	O=C1c2c(ccc3ccccc23)OCC1c1ccccc1 (racemic)	
2.4	O=C1c2ccccc2OCC1c1ccc(Oc2ccccc2)cc1 (racemic)	
	O=C1c2ccccc2OCC1c1ccc(-c2ccccc2)cc1 (racemic)	IC50 (Aromatase [2]): Not Active
	O=C1c2ccccc2OCC1c1cc2ccccc2c2ccccc12 (racemic)	IC50 (Aromatase [2]): Not Active
0.26	COc1ccc2c(c1)C(=O)C(c1ccccc1)CO2 (racemic)	
97	COc1ccccc1C1COc2ccccc2C1=O (racemic)	
99	COc1cccc(C2COc3ccccc3C2=O)c1 (racemic)	
24	COc1ccc(C2COc3ccccc3C2=O)cc1 (racemic)	
11	COc1cc(OC)cc(C2COc3ccccc3C2=O)c1 (racemic)	
30	O=C1c2ccccc2OCC1c1ccsc1 (racemic)	
5.8	O=C1c2ccccc2OCC1c1cccnc1 (racemic)	
32	O=C1c2cc(F)ccc2OCC1c1ccccc1 (racemic)	
5.1	O=C1c2cc(Cl)ccc2OCC1c1ccccc1 (racemic)	
29	O=C1c2cc(Br)ccc2OCC1c1ccccc1 (racemic)	
61	CC(C)(C)c1ccc2c(c1)C(=O)C(c1ccccc1)CO2 (racemic)	
29	O=C1c2ccccc2OCC1c1ccccc1 (racemic) [ISOFLAVANONE]	

— ChEMBL document CHEMBL2010679, “Development of a new class of aromatase inhibitors: design, synthesis and inhibitory activity of 3-phenylchroman-4-one (isoflavanone) derivatives” (Bioorg Med Chem, 2012)
